PubChem BioAssay AID248 (DTP/NCI, 2004)
“And” between values parts separate entries of the source, which are not always exact repeats. Equal values may be shown once. Toxic doses and inconclusive results are not listed. Rule as the data show it: active = T/C of 150% or more; inactive = T/C below 125%.

Tested on: L1210 leukemia ip in BDF1 mice, survival T/C
Test: NCI In Vivo Anticancer Drug Screen. Data for tumor model L1210 Leukemia (intraperitoneal) in B6D2F1 (BDF1) mice
Conditions: endpoint: mean survival time, higher = longer survival
Outline: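 Transplantable tumor model; survival measured in treated vs vehicle control mice. Value = treated/control.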

[1] = dose: 100.0 mg/kg/injection, schedule: Q01DX001 (ip), vehicle: carboxymethylcellulose (CMC)
[2] = dose: 200.0 mg/kg/injection, schedule: Q01DX001 (ip), vehicle: carboxymethylcellulose (CMC)
[3] = dose: 400.0 mg/kg/injection, schedule: Q01DX001 (ip), vehicle: carboxymethylcellulose (CMC)
[4] = dose: 100.0 mg/kg/injection, schedule: Q01DX001 (ip), vehicle: saline
[5] = dose: 200.0 mg/kg/injection, schedule: Q01DX001 (ip), vehicle: saline
[6] = dose: 400.0 mg/kg/injection, schedule: Q01DX001 (ip), vehicle: saline
[7] = dose: 100.0 mg/kg/injection, schedule: Q01DX009 (ip), vehicle: Klucel (hydroxypropylcellulose) (HPC)
[8] = dose: 100.0 mg/kg/injection, schedule: Q04DX003 (ip), vehicle: Klucel (hydroxypropylcellulose) (HPC)
[9] = dose: 200.0 mg/kg/injection, schedule: Q01DX009 (ip), vehicle: Klucel (hydroxypropylcellulose) (HPC)
[10] = dose: 200.0 mg/kg/injection, schedule: Q04DX003 (ip), vehicle: Klucel (hydroxypropylcellulose) (HPC)
[11] = dose: 400.0 mg/kg/injection, schedule: Q04DX003 (ip), vehicle: Klucel (hydroxypropylcellulose) (HPC)
[12] = dose: 100.0 mg/kg/injection, schedule: Q04DX003 (ip), vehicle: saline
[13] = dose: 25.0 mg/kg/injection, schedule: Q04DX003 (ip), vehicle: saline with Tween-80
[14] = dose: 50.0 mg/kg/injection, schedule: Q01DX009 (ip), vehicle: saline with Tween-80
[15] = dose: 50.0 mg/kg/injection, schedule: Q04DX003 (ip), vehicle: saline with Tween-80
[16] = dose: 100.0 mg/kg/injection, schedule: Q04DX003 (ip), vehicle: saline with Tween-80
[17] = dose: 100.0 mg/kg/injection, schedule: Q01DX009 (ip), vehicle: saline with Tween-80
[18] = dose: 200.0 mg/kg/injection, schedule: Q01DX009 (ip), vehicle: saline with Tween-80

Measured: T/C

c1cc2cnc3cccc4cnc(c1)c2c43
inactive: dose: 100.0 mg/kg/injection, schedule: Q04DX003 (ip), vehicle: saline sonified 105 % of control | dose: 200.0 mg/kg/injection, schedule: Q04DX003 (ip), vehicle: saline sonified 95 % of control | dose: 400.0 mg/kg/injection, schedule: Q04DX003 (ip), vehicle: saline sonified 97 % of control

O=[N+]([O-])c1ccc2c(c1)/C(=N\O)c1cc(F)ccc1-2
inactive: [1] 103 % of control | [2] 105 % of control | [3] 98 % of control

N=C(N)C1CCCCC1
inactive: [4] 95 % of control | [5] 97 % of control | [6] 100 % of control

CC(OC(=O)c1ccccc1)c1ccccc1 (stereo unspecified)
inactive: [7] 94 % of control | [8] 101 % of control | [9] 100 % of control | [10] 103 % of control | dose: 400.0 mg/kg/injection, schedule: Q01DX009 (ip), vehicle: Klucel (hydroxypropylcellulose) (HPC) 96 % of control | [11] 101 % of control

O=C(CCl)NCCO
inactive: [12] 108 % of control | dose: 200.0 mg/kg/injection, schedule: Q04DX003 (ip), vehicle: saline 90 % of control | dose: 400.0 mg/kg/injection, schedule: Q04DX003 (ip), vehicle: saline 104 % of control

Nc1ccc(S(=O)(=O)F)c(Cl)c1
inactive: [4] 102 % of control | [5] 98 % of control | [6] 98 % of control

COc1cc([N+](=O)[O-])ccc1S(=O)(=O)Cl
inactive: dose: 25.0 mg/kg/injection, schedule: Q01DX009 (ip), vehicle: saline with Tween-80 91 % of control | dose: 25.0 mg/kg/injection, schedule: Q04DX002 (ip), vehicle: saline with Tween-80 104 % of control | [13] 97 % of control | dose: 50.0 mg/kg/injection, schedule: Q01DX001 (ip), vehicle: saline with Tween-80 101 % of control | [14] 91 % of control | dose: 50.0 mg/kg/injection, schedule: Q04DX002 (ip), vehicle: saline with Tween-80 93 % of control and 120 % of control | [15] 103 % of control | dose: 100.0 mg/kg/injection, schedule: Q01DX001 (ip), vehicle: saline with Tween-80 92 % of control | [16] 94 % of control | dose: 200.0 mg/kg/injection, schedule: Q04DX003 (ip), vehicle: saline with Tween-80 88 % of control

O=C(O)CCc1nc2ccccc2[nH]1
inactive: dose: 75.0 mg/kg/injection, schedule: Q01DX009 (ip), vehicle: Klucel (hydroxypropylcellulose) (HPC) 107 % of control | dose: 150.0 mg/kg/injection, schedule: Q01DX009 (ip), vehicle: Klucel (hydroxypropylcellulose) (HPC) 100 % of control | dose: 300.0 mg/kg/injection, schedule: Q01DX009 (ip), vehicle: Klucel (hydroxypropylcellulose) (HPC) 104 % of control

NNC(=O)c1ccccn1
inactive: dose: 50.0 mg/kg/injection, schedule: Q01DX001 (ip), vehicle: water 98 % of control | dose: 75.0 mg/kg/injection, schedule: Q01DX001 (ip), vehicle: water 98 % of control | dose: 100.0 mg/kg/injection, schedule: Q01DX009 (ip), vehicle: water 97 % of control | dose: 150.0 mg/kg/injection, schedule: Q01DX001 (ip), vehicle: water 102 % of control

CN(Cc1ccccc1)Cc1cc(CO)ccc1O
inactive: [1] 103 % of control | [2] 105 % of control

Cc1ccc(S(=O)(=O)N(C)c2ccc(CC(=O)O)cc2)cc1
inactive: [8] 97 % of control | [10] 95 % of control | [11] 95 % of control

Clc1nc2nc[nH]c2nc1Cl
inactive: [13] 98 % of control | [15] 104 % of control | [8] 92 % of control | [16] 86 % of control

O=C(O)c1cnc(C(=O)O)cn1
inactive: dose: 50.0 mg/kg/injection, schedule: Q01DX009 (ip), vehicle: Klucel (hydroxypropylcellulose) (HPC) 98 % of control | [7] 87 % of control | [9] 91 % of control

O=C(O)C1=C(C(=O)O)C2CCCC3C4CCCCC4N(N1)C23 (stereo unspecified)
inactive: dose: 75.0 mg/kg/injection, schedule: Q01DX001 (ip), vehicle: acetone 117 % of control | dose: 150.0 mg/kg/injection, schedule: Q01DX001 (ip), vehicle: acetone 104 % of control | dose: 300.0 mg/kg/injection, schedule: Q01DX001 (ip), vehicle: acetone 118 % of control

COc1ccc(C(CCCC(=O)O)c2ccc(OC)cc2)cc1
inactive: [4] 112 % of control | [5] 104 % of control | [6] 104 % of control

CCCCCCCCCCCCCCCCSCCCCCCCCCCCCCCCC
inactive: [17] 104 % of control | [18] 98 % of control

COC(=O)C(C)CN1CCCC1 (stereo unspecified)
inactive: dose: 12.5 mg/kg/injection, schedule: Q01DX009 (ip), vehicle: saline 97 % of control | dose: 25.0 mg/kg/injection, schedule: Q01DX009 (ip), vehicle: saline 88 % of control | dose: 25.0 mg/kg/injection, schedule: Q04DX003 (ip), vehicle: saline 98 % of control | dose: 50.0 mg/kg/injection, schedule: Q01DX009 (ip), vehicle: saline 100 % of control | dose: 50.0 mg/kg/injection, schedule: Q04DX003 (ip), vehicle: saline 107 % of control | [12] 104 % of control

COc1ccc(C(C)CO)cc1 (stereo unspecified)
inactive: [14] 102 % of control | [17] 94 % of control | [18] 102 % of control

O=C(O)C1C(C(=O)O)C2(Cl)C(Cl)=C(Cl)C1(Cl)C2(Cl)Cl.[Mn] (stereo unspecified)
inactive: dose: 44.0 mg/kg/injection, schedule: Q01DX009 (ip), vehicle: saline 107 % of control | dose: 50.0 mg/kg/injection, schedule: Q01DX009 (ip), vehicle: saline sonified 114 % of control | dose: 66.0 mg/kg/injection, schedule: Q01DX009 (ip), vehicle: saline 105 % of control | dose: 100.0 mg/kg/injection, schedule: Q01DX009 (ip), vehicle: saline 105 % of control | [8] 97 % of control | dose: 150.0 mg/kg/injection, schedule: Q01DX009 (ip), vehicle: saline 112 % of control | dose: 200.0 mg/kg/injection, schedule: Q01DX009 (ip), vehicle: saline sonified 104 % of control | [10] 95 % of control

CCc1ccccc1NC(=O)C(Cl)Cl
inactive: dose: 100.0 mg/kg/injection, schedule: Q04DX002 (ip), vehicle: Klucel (hydroxypropylcellulose) (HPC) 100 % of control | dose: 200.0 mg/kg/injection, schedule: Q04DX002 (ip), vehicle: Klucel (hydroxypropylcellulose) (HPC) 103 % of control | dose: 400.0 mg/kg/injection, schedule: Q04DX002 (ip), vehicle: Klucel (hydroxypropylcellulose) (HPC) 100 % of control

CCOP(=S)(N/N=C1/CCCC(C)C1)OCC (stereo unspecified)
inactive: [1] 93 % of control | [2] 93 % of control | [3] 97 % of control
